Consider two compounds from US5037830A, “Novel thiouracyl derivatives, pharmaceutical compositions containing them and process for preparing same” (Richter Gedeon Vegyeszeti Gyar RT, priority 1989, dated 1991).

As usually defined, the ED50 is the dose that gives a 50% effect, or the effect in half of the subjects. The LD50 is the dose expected to kill half of the subjects tested.

Like-named read-outs stand apart in the source and are kept apart here.

The subject of series [1] is carbachol-induced gastric acid secretion. Briefly: Inhibition of the carbachol-induced gastric acid secretion in dogs. Format: in vivo, Beagle dogs. The procedure: (§1) After being starved for 24 hours, Beagle dogs of both sexes weighing 6.3 to 11.9 kg were anaesthetized with sodium pentobarbital (30 mg/kg i.v.). The trachea and femoral veins on both sides were cannulated. After laparotomy the pylorus was ligated, a glass cannula was placed into the anterior side of the stomach and fixed by a purse string suture to the stomach wall, abdominal wall and abdominal skin. A rubber probe was introduced to the stomach through the mouth. The animal thus prepared was put onto a Pavlov's frame. The steady sleep was ensured by the infusion of sodium pentobarbital (5 mg/kg/hour). The stomach was washed with lukewarm water and emptied. The secretion-inducing agents (histamine, pentagastrin, carbachol) were administered in a volume of 12 ml/hour for 2 hours in the following doses:
(§2) After 2 hours the infusion was stopped, the volume of the gastric juice produced was measured and its acid content was determined by titration with 0.1N NaOH by using Topfer's indicator. The compound of Example 1 was administered in a 25 mg/kg i.p. dose to the animals by 30 minutes before starting the infusion.

Series [2] has as its system pentagastrin-induced gastric acid secretion. Briefly: Inhibition of the pentagastrin-induced gastric acid secretion in dogs. Format: in vivo, Beagle dogs. The procedure: as §1, §2
The subject of series [3] is reserpine-induced gastric ulcer. Briefly: Inhibition of the reserpine-induced gastric ulcer. Format: in vivo, female OFA rats. Conditions: for ED50: Rattus norvegicus, po, 18 h, p.o., reserpine 5 mg/kg s.c. The procedure: After being starved for 24 hours, female OFA rats were orally treated with the compounds to be tested and then subcutaneously (s.c.) with 5 mg/kg of reserpine after 1 hour. After 18 hours the animals were killed and their stomach were examined under microscope. The evaluation was performed as described under the preceding paragraph 1.

The next series is described as follows: Acute toxicity, mouse. To be noted: in vivo. The procedure:
These investigations were carried out in OFI mice and OFA rats after starving for 24 hours. Ten animals were used for each dose. The number of doses was 3 or 4.

Series [4] relates to histamine-induced gastric acid secretion. Briefly: Inhibition of the histamine-induced gastric acid secretion in dogs. Format: in vivo, Beagle dogs. The procedure:
as §1, §2

The mark [5] stands for this setting: 25 mg/kg i.p. + Carbachol 0.02 mg/kg/hr.
The mark [6] stands for this setting: 25 mg/kg i.p. + Pentagastrin 0.03 mg/kg/hr.
The mark [7] stands for this setting: read-out: ED50 related to the number of ulcers.
The mark [8] stands for this setting: read-out: ED50 related to the occurrance of ulcers.
[9] abbreviates: read-out: ED50 related to the severity of ulcers.
Setting [10] is: po, female mouse, precision restricted by solubility.
[11] abbreviates: po, male mouse, precision restricted by solubility.
Where [12] appears, read: 25 mg/kg i.p. + Histamine 0.1 mg/kg/hr.

In the case of `Cc1cc(=O)[nH]c(SCc2ccccc2N(C)C)n1` [Example 1, 2-(2-dimethylaminobenzyl)thio-6-methyl-4(3H)-pyrimidinone], the Gastric acid volume was found to be 1.84 ± 0.74 ml/kg/2 hr in series [1] (setting [5]), 1.43 ± 0.77 ml/kg/2 hr in series [2] (setting [6]) and 3.90 ml/kg/2 hr in series [4] (setting [12]). Moreover, the Gastric acid, change in series [1] (setting [5]) is -80%; in series [2] (setting [6]) it was -76%; in series [4] (setting [12]) it was -75%. For the same compound, the Gastric juice volume in series [1] (setting [5]) turned out to be 2.55 ± 0.79 ml/kg/2 hr; in series [2] (setting [6]) it was 2.90 ± 0.48 ml/kg/2 hr; in series [4] (setting [12]), 3.85 ml/kg/2 hr. Besides, the Gastric juice, change in series [1] (setting [5]) is listed as -69%; in series [2] (setting [6]), -54%; in series [4] (setting [12]), -69%. In addition, the “inhibition of gastric acid secretion, in words” value in series [1] (dogs compared with rats, carbachol) was “with the same efficiency in dogs as in rats”; in series [2] (dogs compared with rats, pentagastrin), “with the same efficiency in dogs as in rats”; in series [4] (dogs compared with rats, histamine), “with the same efficiency in dogs as in rats”. For the same compound, the ED50 in series [3] (setting [7]) stood at 16 mg/kg; in series [3] (setting [8]), 18 mg/kg; in series [3] (setting [9]), 15 mg/kg. For the same compound, the “ulcer inhibition, in words” value in series [3] (compared with reference drugs) is “significantly stronger inhibited”. Also, the LD50 in “Acute toxicity, mouse” (ip, female mouse) was 365 mg/kg; in the series “Acute toxicity, mouse” (ip, male mouse), 360 mg/kg; in “Acute toxicity, mouse” (setting [10]), greater than 1000 mg/kg; in the series “Acute toxicity, mouse” (setting [11]), greater than 1000 mg/kg.
For `CN(C)c1ccccc1C[S+]([O-])c1nc2ccccc2[nH]1` (stereo not drawn) [NC-1300, 2-[(2-dimethylaminobenzyl)sulfinyl]-1H-benzimidazole, reference compound], the figures for the 50% effective dose (ED50) in series [3] (setting [7]), in series [3] (setting [8]) and in series [3] (setting [9]) were 8 mg/kg, 18 mg/kg and 6 mg/kg, respectively. For the same compound, the 50% lethal dose (LD50) in the series “Acute toxicity, mouse” (ip, female mouse) was 415 mg/kg; in “Acute toxicity, mouse” (ip, male mouse), 410 mg/kg; in the series “Acute toxicity, mouse” (setting [10]) it was greater than 1000 mg/kg; in “Acute toxicity, mouse” (setting [11]), greater than 1000 mg/kg.
